Experimental data published in publication PMC7297817, “Pharmacological Characterization of a Betaine/GABA Transporter 1 (BGT1) Inhibitor Displaying an Unusual Biphasic Inhibition Profile and Anti-seizure Effects” (Neurochemical Research, 2020).
“Also recorded” adds a separate entry of the source. Like-named read-outs stand apart in the source and are kept apart here. Values belong to the compound of their own block, whether it stands above or below them.

How the values were obtained:
hBGT1 = target: T1, hBGT1 (Homo sapiens, UniProt P48065); assay: [3H]GABA uptake at hBGT1 transiently expressed in tsA201 cells; assay type: cell-based; conditions: for IC50 / inhibition profile (mono-/biphasic): 30 nM [3H]GABA, 3 min; for Frac: proportion of maximal response due to the more potent phase; for inhibition profile (mono-/biphasic): F test; for preferred curve fitting: in the presence of 10 μM ATP
T1 construct: expressed in transfected cells; host or cells: tsA201 (transient)
T1 sequence (P48065 1-614): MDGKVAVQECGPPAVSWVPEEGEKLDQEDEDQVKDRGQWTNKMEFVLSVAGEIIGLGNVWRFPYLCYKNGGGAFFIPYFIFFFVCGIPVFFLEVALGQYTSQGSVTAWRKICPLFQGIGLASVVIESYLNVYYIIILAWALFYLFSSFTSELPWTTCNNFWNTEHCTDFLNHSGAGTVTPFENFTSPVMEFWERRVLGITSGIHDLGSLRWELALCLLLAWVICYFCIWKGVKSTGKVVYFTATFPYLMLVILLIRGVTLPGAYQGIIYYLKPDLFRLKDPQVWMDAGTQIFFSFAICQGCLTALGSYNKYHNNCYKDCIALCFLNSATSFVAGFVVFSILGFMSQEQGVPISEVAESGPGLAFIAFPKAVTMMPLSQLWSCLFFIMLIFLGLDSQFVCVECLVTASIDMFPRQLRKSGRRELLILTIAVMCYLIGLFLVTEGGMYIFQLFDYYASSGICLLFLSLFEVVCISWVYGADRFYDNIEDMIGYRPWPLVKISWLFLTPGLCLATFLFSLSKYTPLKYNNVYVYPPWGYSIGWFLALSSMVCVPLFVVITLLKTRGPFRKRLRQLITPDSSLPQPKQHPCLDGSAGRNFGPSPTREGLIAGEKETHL
Experimental: The tsA201 cell line was used for transient expression while the MDCK II cell line express BGT1 endogenously. Both cell lines were cultured as described. tsA201 cells were transfected with DNA constructs (8 μg per 10 cm dish if not otherwise mentioned) using 40 μL PolyFect transfection reagent according to the manufacturer’s protocol (Qiagen, Venlo, Netherlands). The DNA constructs encoding hBGT1, hGAT1-3 [36], the mutated constructs hBGT1 Q299 and hGAT3 L314Q described previously, and hBGT Y453A were synthesized and sequence validated by Genscript (NJ, USA).
The [^3H]GABA competition uptake assay was performed as previously described. […] Studies related to the inhibition curves with GABA and BPDBA at hBGT1 were obtained both with and without the presence of 10 μM ATP during the [^3H]GABA uptake assay.
All compounds, except BAPTA/AM, were also present at the same concentration during the course of the actual [^3H]GABA uptake assay.
The [^3H]GABA uptake data was normalized to the percentage of total uptake in the individual experiments in the presence of the lowest compound concentration or no compound present. Data presented is the pooled data of at least three independent experiments with three technical replicates. Concentration–response curves (CRCs) were fitted with GraphPad Prism (version 8.2.1, Yosemite, GraphPad Software, San Diego, CA, USA) by non-linear regression to the sigmoidal concentration response model: Y=Bottom+(Top-Bottom)/1+10^LogIC50-X∗nH where Top is the Top plateau, Bottom is the Bottom plateau, X is the logarithm of the concentration of the compound, LogIC50 is the concentration giving a response halfway between Top and Bottom,and nH is the Hill slope.
The best fit for CRCs obtained with the [^3H]GABA uptake assay was identified by the extra-sum-of-squares F test (for convenience referred to as F test).

[1] = test system: tsA201 cells transiently expressing hBGT1; assay: Fluo-4 Ca2+-assay in tsA201 cells transiently expressing hBGT1; assay type: cell-based, human; conditions: within the 3 min timeframe; blocked by BAPTA/AM
Experimental: Emission was recorded for 20 s. before adding the compounds (at 4 × concentrations) to the HBSS-HEPES buffer to determine the baseline. […] Data presented is the pooled data of at least three independent experiments with three technical replicates. Changes in fluorescence units (ΔFU) were determined as the maximum fluorescent signal within the 190 s minus the average of the baseline.

[2] = test system: 74 different neuroreceptors and ion channels; conditions: adrenergic, GABAergic and dopaminergic receptors included; cited from earlier work
[3] = read-out: IC50, low affinity component (high IC50), biphasic fit, tsA201, 8 μg cDNA
[4] = monophasic fit (biphasic n.s.), read-out: IC50
[5] = biphasic fit, tsA201, 8 μg cDNA, read-out: IC50, low affinity component (high IC50)

Compound: Cc1ccsc1C(=CCCN(C)[C@@H]1CCCC[C@@H]1C(=O)O)c1sccc1C [(1S,2R)-5a, (1S,2R)-2-((4,4-bis(3-methylthiophen-2-yl)but-3-en-1-yl)(methyl)amino)cyclohexane-1-carboxylic acid]
IC50 (hBGT1; IC50, high affinity component (low IC50), biphasic fit, tsA201, 8 μg cDNA): 4.7 µM
Frac (hBGT1; 8 μg cDNA): 0.28
IC50 (hBGT1; [3]): 370 µM

preferred curve fitting (hBGT1): monophasic fit
IC50 (hBGT1; [4]): 14.8 µM
IC50 (hBGT1; monophasic fit (biphasic n.s.), read-out: pIC50 ± S.E.M. (converted)): 15.1 µM
Compound: O=C(NC1CCN(Cc2ccccc2)CC1)c1ccc(Cl)cc1Cl [BPDBA, N-(1-benzyl-4-piperidinyl)-2,4-dichlorobenzamide, reference compound]
inhibition profile (mono-/biphasic) (hBGT1): monophasic; also recorded: did not inhibit hBGT1 in a biphasic manner

Compound: COc1ccccc1C1(O)CCN(CCCn2c3ccccc3c3ccccc32)CC1 [NNC 05-2090, 1-[3-(9H-Carbazol-9-yl)propyl]-4-(2-methoxyphenyl)-4-piperidinol, reference compound]
inhibition profile (mono-/biphasic) (hBGT1): did not inhibit hBGT1 in a biphasic manner
IC50 (hBGT1; [4]): 117 µM

inhibition profile (mono-/biphasic) (hBGT1): biphasic CRC
nH1 (hBGT1; Hill slope of first phase, 8 μg cDNA): –0.79
nH2 (hBGT1; Hill slope of second phase, 8 μg cDNA): –2.35
IC50 (hBGT1; [5]): 190 µM
IC50 (hBGT1; biphasic fit, tsA201, 8 μg cDNA, read-out: pIC50 ± S.E.M., high affinity component (converted)): 2.45 µM
Frac (hBGT1; 8 μg cDNA): 0.30
Compound: Cc1ccsc1C(CCCN(C)[C@@H]1CCCc2onc(O)c21)c1sccc1C [(R)-EF1502, (R)-4-((4,4-bis(3-methylthiophen-2-yl)butyl)(methyl)amino)-4,5,6,7-tetrahydrobenzo[d]isoxazol-3-ol, reference compound]

IC50 (hBGT1; biphasic fit, tsA201, 8 μg cDNA, read-out: IC50, high affinity component (low IC50)): 11.2 µM
IC50 (hBGT1; [5]): 819 µM
Frac (hBGT1; 8 μg cDNA): 0.26
Compound: CN(CCC=C1c2ccccc2CCc2ccccc21)[C@@H]1CCCC[C@@H]1C(=O)O [(1R,2S)-5c, (1S,2R)-2-((3-(10,11-dihydro-5H-dibenzo[a,d][7]annulen-5-ylidene)propyl)(methyl)amino)cyclohexane-1-carboxylic acid]

inhibition profile (mono-/biphasic) (hBGT1): monophasic
preferred curve fitting (hBGT1): monophasic fit
Compound: NCCCC(=O)O [GABA, γ-Aminobutyric acid]

Compound: Nc1ncnc2c1ncn2[C@@H]1O[C@H](COP(=O)(O)OP(=O)(O)OP(=O)(O)O)[C@@H](O)[C@H]1O [ATP, adenosine 5′-triphosphate, reference compound]
intracellular Ca2+ increase [1]: induced a Ca^2+ increase
decrease of total [3H]GABA uptake (hBGT1; ATP present during uptake (10 μM per methods)): 9%

Compound: N-[4,4-bis(3-methyl-2-thienyl)-3-butenyl]-3-hydroxy-4-(methylamino)-4,5,6,7-tetrahydrobenzo[d]isoxazol-3-ol [EF1502]
activity at a broad range of neurotransmitter systems [2]: completely devoid of any activity

Compound: Cc1ccsc1C(=CCCN(C)[C@@H]1CCCC[C@H]1C(=O)O)c1sccc1C [(1R,2R)-4a, (1R,2R)-2-((4,4-bis(3-methylthiophen-2-yl)but-3-en-1-yl)(methyl)amino)cyclohexane-1-carboxylic acid]
IC50 (hBGT1; pIC50 ± S.E.M., high affinity component, biphasic fit, tsA201, 8 μg cDNA): 3.39 µM
Frac (hBGT1; 8 μg cDNA): 0.19
IC50 (hBGT1; [3]): 566 µM
